Reference: US20100034746A1, “ANIMAL MODEL, SYSTEM, AND METHOD FOR SCREENING COMPOUNDS FOR ANTI[…]/OR TH[…]” (Piramal Life Sciences Limited, priority 2007, published 2010)

Assays:
[1] = tested on: thrombus formation; test: Cross-circulation thrombosis model, cannulae connected with latex tubing; survival time of recipient after blocking trachea; format: in vivo, Wistar rats; conditions: cannula with latex tubing; for Survival time (min) Mean ± S.E.: recipient rat; for Survival time of the recipients, result in words: compared with vehicle/saline treated control animals
Text: Wistar rats (either sex; weighing 290-310 g) were used throughout the experiments. Animals were housed and cared for in accordance with the Guidelines in force published by CPCSEA (Committee for the Purpose of Control and Supervision of Experiments on Animals), Tamil Nadu, India. Procedures using laboratory animals were approved by the IAEC (Institutional Animal Ethics Committee) of the Research Centre of Nicholas Piramal India Limited, Mumbai, India.
In one experiment a pair of rats were anesthetized using urethane (1.5 g/kg; Fluka) by intra-peritoneal administration. After anesthetization, one of the jugular veins and carotid arteries of each of the rats were exposed and clamped. Polyethylene cannulae (0.76 mm ID and 1.22 mm OD, polyethylene tubing, each 6.0 cm in length; Portex Ltd) filled with normal saline (0.9%, w/v, sodium chloride, Merck) were introduced into these vessels and secured tightly by tying with cotton thread (No. 40, Madura Coats Ltd., India). Furthermore, trachea of any one of the rats was exposed and a piece of thread was put loosely around it (recipient). Then the arterial cannula of one of the rats was connected to the venous cannula of the other rat and vice versa, using 2.5 cm long piece of latex tubing (0.89 mm ID; PharMed, Cole-Parmer). FIG. 1 schematically illustrates these rats.
The experiment was initiated by opening the clamps on all the vessels, which initiated cross circulation of blood between the two animals. […] FIG. 2 schematically illustrates these rats.
Survival was monitored by the animal's effort to respire.
In another experiment, pairs of rats were treated with antithrombotic/thrombolytic agents selected from the following list:
The drug suspensions for oral use were prepared in the vehicle, carboxymethyl cellulose (CMC, 0.5% w/v, Sigma), using polyoxyethylenesorbitan monooleate (Tween 80, Sigma) as a wetting agent. Commercially available streptokinase solution was diluted with normal saline to an appropriate concentration for the i.v. use.
Vehicle/drugs were administered to rats orally at the doses mentioned above, in a volume of 1 ml/kg. With the exception of streptokinase, all other drugs were administered once daily for three consecutive days and the experiment was performed on the third day, one hour after the administration of the last dose. The vehicle-treated animals were used as controls.
Streptokinase was administered as a continuous infusion at a dose of 60,000 I.U./ml/kg/hour intravenously, through the femoral vein of the recipient and was administered only on the day of experiment. As a source of plasminogen, human plasma was injected to the animal intravenously at a dose of 1 ml/kg, just before blocking the trachea. Streptokinase infusion was initiated two minutes after blocking the trachea of the recipient. Saline-infused animals were used as control for streptokinase-treated animals.
(§1) The survival time of the recipients in the abovementioned experiments was recorded.

[2] = tested on: thrombus formation; test: Cross-circulation thrombosis model, cannulae connected with damaged rat thoracic aorta; survival time of recipient after blocking trachea; format: in vivo, Wistar rats
Text: In the present experiment, the piece of latex tubing used in Example 1 was replaced by a piece of rat thoracic aorta with damaged endothelium, so that the anti-thrombotic effect of the compounds could be studied in a near natural situation.
Maintenance of a patent vasculature is critical to provide blood flow to dependent tissues. […] Following vessel injury, active hemostasis results from vasoconstriction, adherence of activated platelets to damaged endothelium, their aggregation and activation of coagulation enzymes, finally resulting into thrombosis. It has been shown that chronic carbon tetrachloride treatment to rats causes serious damage to vascular endothelial cells and thus the blood vessels get damaged. It was thought of using these damaged vessels, instead of latex tubing (used in Example 1), to connect arterial and venous cannulae of donor and recipient, in order to mimic the physiological process of thrombus formation.
They were administered carbon tetrachloride (Fluka) in olive oil (Figaro, Spain) (1:1 v/v), 0.5 ml/kg, intraperitoneally, twice a week for eight continuous weeks. […]
In spite of the blocked trachea, the recipient survived, as long as the oxygenated blood supply from the donor continued. Survival was monitored by the animal's effort to respire. […]
as §1

[3] = 20 mg/kg p.o. once daily for three days, 1 h after last dose, CMC control 10.9 ± 0.70

Compound	Survival time (min) Mean ± S.E. [1, 3]	Survival time of the recipients, result in words [1]	further results
COC(=O)[C@H](c1ccccc1Cl)N1CCc2sccc2C1 [Clopidogrel, Clopidogrel bisulphate]	47.8 ± 3.78 min		
Streptokinase		significant prolongation of the survival time	Survival time (min) Mean ± S.E. ([1]; 60,000 IU/ml/kg/hr i.v. continuous infusion, human plasma 1 ml/kg i.v., saline control 10.4 ± 0.91): 89.5 ± 10.55 min
OCCN(CCO)c1nc(N2CCCCC2)c2nc(N(CCO)CCO)nc(N3CCCCC3)c2n1 [Dipyridamole]	38.5 ± 1.55 min		
CC(=O)Oc1ccccc1C(=O)O [Aspirin, acetylsalicylic acid]		Significant increase in the survival time	Survival time of the recipient, result in words ([2]; cannula with damaged blood vessel, compared with appropriate control animals): Significant increase in the survival time; Survival time (min) Mean ± S.E. ([2]; recipient rat, cannula with damaged thoracic aorta, 20 mg/kg p.o. once daily for three days, CMC control 5.18 ± 0.99): 33.9 ± 4.58 min; Survival time (min) Mean ± S.E. ([1]; 20 mg/kg p.o. once daily for three days, 1 h after last dose, CMC control 10.9 ± 0.70, 20 mg/kg): 45.3 ± 4.40 min
